What follows are compounds tested against GST-Bcl-2 (Homo sapiens (Human), UniProt P10415) (assay: Time Resolved-Fluorescence Resonance Energy Transfer (TR-FRET) Bcl-2 binding assay). Settings: not given.
How it was run: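 Ki values derived from TR-FRET displacement of F-Bak peptide from GST-Bcl-2, detected with Tb-labelled anti-GST antibody (ex 340, em 520/495 nm). Compound dilution series started at 50 μM (2× starting concentration); room-temperature incubation 3 hours.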

Sequence of GST-Bcl-2 (P10415 whole entry): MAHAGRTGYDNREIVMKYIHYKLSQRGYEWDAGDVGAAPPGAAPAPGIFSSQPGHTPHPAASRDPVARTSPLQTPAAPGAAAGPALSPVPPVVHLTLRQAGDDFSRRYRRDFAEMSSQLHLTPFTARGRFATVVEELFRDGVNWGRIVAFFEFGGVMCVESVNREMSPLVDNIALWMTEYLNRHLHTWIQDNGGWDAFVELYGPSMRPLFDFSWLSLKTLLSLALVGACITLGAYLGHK

Structure (SMILES)	Ki [nM]
CC1(C)CCC(CN2CCN(c3ccc(C(=O)NS(=O)(=O)c4ccc(N[C@H]5CC[C@H](N6CCOCC6)CC5)c([N+](=O)[O-])c4)c(Oc4cccc5c4CC(=O)N5)c3)CC2)=C(c2ccc(Cl)cc2)C1 [Example 320, Trans-4-(4-{[2-(4-chlorophenyl)-4,4-dimethylcyclohex-1-en-1-yl]methyl}piperazin-1-yl)-N-({4-[(4-morpholin-4-ylcyclohexyl)amino]-3-nitrophenyl}sulfonyl)-2-[(2-oxo-2,3-dihydro-1H-indol-4-yl)oxy]benzamide]	0.028
CC1(C)CCC(CN2CCN(c3ccc(C(=O)NS(=O)(=O)c4ccc(O[C@H]5CC[C@H](N6CCOCC6)CC5)c([N+](=O)[O-])c4)c(Oc4cc5cc[nH]c5cc4F)c3)CC2)=C(c2ccc(Cl)cc2)C1 [Example 311, Trans-4-(4-{[2-(4-chlorophenyl)-4,4-dimethylcyclohex-1-en-1-yl]methyl}piperazin-1-yl)-2-[(6-fluoro-1H-indol-5-yl)oxy]-N-({4-[(4-morpholin-4-ylcyclohexyl)oxy]-3-nitrophenyl}sulfonyl)benzamide]	0.185

Same assay, conditions: GST-Bcl-2 1 nM, F-Bak peptide probe 100 nM, Tb-anti-GST antibody 1 nM; Ki by Wang's equation

Structure (SMILES)	Ki [nM]
CC1(C)CCC(CN2CCN(c3ccc(C(=O)NS(=O)(=O)c4ccc(NN5CCOCC5)c([N+](=O)[O-])c4)c(Oc4cccc(Cl)c4)c3)CC2)=C(c2ccc(Cl)cc2)C1 [Example 253, 2-(3-chlorophenoxy)-4-(4-{[2-(4-chlorophenyl)-4,4-dimethylcyclohex-1-en-1-yl]methyl}piperazin-1-yl)-N-{[4-(morpholin-4-ylamino)-3-nitrophenyl]sulfonyl}benzamide]	0.05
CC1(C)CCC(CN2CCN(c3ccc(C(=O)NS(=O)(=O)c4ccc(NC5CCN(C6CCOCC6)CC5)c([N+](=O)[O-])c4)c(Oc4cc5cc[nH]c5cc4C(F)(F)F)c3)CC2)=C(c2ccc(Cl)cc2)C1 [Example 218, 4-(4-{[2-(4-chlorophenyl)-4,4-dimethylcyclohex-1-en-1-yl]methyl}piperazin-1-yl)-N-({3-nitro-4-[(1-tetrahydro-2H-pyran-4-ylpiperidin-4-yl)amino]phenyl}sulfonyl)-2-{[6-(trifluoromethyl)-1H-indol-5-yl]oxy}benzamide]	0.175
N#Cc1cccc(Oc2cc(N3CCN(Cc4ccccc4-c4ccc(Cl)cc4)CC3)ccc2C(=O)NS(=O)(=O)c2ccc(NCC3CCOCC3)c([N+](=O)[O-])c2)c1 [Example 22, 4-(4-((4′-chloro-1,1′-biphenyl-2-yl)methyl)piperazin-1-yl)-2-(3-cyanophenoxy)-N-((3-nitro-4-((tetrahydro-2H-pyran-4-ylmethyl)amino)phenyl)sulfonyl)benzamide]	5.46
CC1(C)CCC(CN2CCN(c3ccc(C(=O)NS(=O)(=O)c4ccc(NN5CCOCC5)c([N+](=O)[O-])c4)c(Oc4cc5cc[nH]c5cc4F)c3)CC2)=C(c2ccc(Cl)cc2)C1 [Example 252, 4-(4-{[2-(4-chlorophenyl)-4,4-dimethylcyclohex-1-en-1-yl]methyl}piperazin-1-yl)-2-[(6-fluoro-1H-indol-5-yl)oxy]-N-{[4-(morpholin-4-ylamino)-3-nitrophenyl]sulfonyl}benzamide]	1.15
CC1(C)CCC(c2ccc(Cl)cc2)=C(CN2CCN(c3ccc(C(=O)NS(=O)(=O)c4ccc(NCC5CCOCC5)c([N+](=O)[O-])c4)c(Oc4cc5cc[nH]c5cc4F)c3)CC2)C1 [Example 262, 4-(4-{[2-(4-chlorophenyl)-5,5-dimethylcyclohex-1-en-1-yl]methyl}piperazin-1-yl)-2-[(6-fluoro-1H-indol-5-yl)oxy]-N-({3-nitro-4-[(tetrahydro-2H-pyran-4-ylmethyl)amino]phenyl}sulfonyl)benzamide]	0.276
CC1(C)CCC(CN2CCN(c3ccc(C(=O)NS(=O)(=O)c4cnc(OCC5(F)CCOCC5)c(F)c4)c(Oc4cnc(N)c(Cl)c4)c3)CC2)=C(c2ccc(Cl)cc2)C1 [Example 402, 2-[(6-amino-5-chloropyridin-3-yl)oxy]-4-(4-{[2-(4-chlorophenyl)-4,4-dimethylcyclohex-1-en-1-yl]methyl}piperazin-1-yl)-N-({5-fluoro-6-[(4-fluorotetrahydro-2H-pyran-4-yl)methoxy]pyridin-3-yl}sulfonyl)benzamide]	0.039
CC1(C)CCC(CN2CCN(c3ccc(C(=O)NS(=O)(=O)c4ccc(NCCCN5CCOCC5)c([N+](=O)[O-])c4)c(Oc4ccc(N)c(Cl)c4)c3)CC2)=C(c2ccc(Cl)cc2)C1 [Example 52, 2-(4-amino-3-chlorophenoxy)-4-(4-((2-(4-chlorophenyl)-4,4-dimethylcyclohex-1-en-1-yl)methyl)piperazin-1-yl)-N-((4-((3-morpholin-4-ylpropyl)amino)-3-nitrophenyl)sulfonyl)benzamide]	0.072
CC1(C)CCC(CN2CCN(c3ccc(C(=O)NS(=O)(=O)c4ccc(NCC5CCOCC5)c([N+](=O)[O-])c4)c(Oc4ccnc(NC(=O)OC(C)(C)C)c4)c3)CC2)=C(c2ccc(Cl)cc2)C1 [Example 280, tert-butyl 4-(5-(4-{[2-(4-chlorophenyl)-4,4-dimethylcyclohex-1-en-1-yl]methyl}piperazin-1-yl)-2-{[({3-nitro-4-[(tetrahydro-2H-pyran-4-ylmethyl)amino]phenyl}sulfonyl)amino]carbonyl}phenoxy)pyridin-2-ylcarbamate]	7.55
Cc1ccccc1Oc1cc(N2CCN(CC3=C(c4ccc(Cl)cc4)CC(C)(C)CC3)CC2)ccc1C(=O)NS(=O)(=O)c1ccc(NC2CCN(C)CC2)c([N+](=O)[O-])c1 [Example 181, 4-(4-{[2-(4-chlorophenyl)-4,4-dimethylcyclohex-1-en-1-yl]methyl}piperazin-1-yl)-2-(2-methylphenoxy)-N-({4-[(1-methylpiperidin-4-yl)amino]-3-nitrophenyl}sulfonyl)benzamide]	0.119
CN(C)CCOc1ccc(-c2ccc(Cl)cc2)c(CN2CCN(c3ccc(C(=O)NS(=O)(=O)c4ccc(NC5CCN(C)CC5)c([N+](=O)[O-])c4)c(Oc4cccc(Cl)c4)c3)CC2)c1 [Example 37, 4-(4-((4′-chloro-4-(2-(dimethylamino)ethoxy)-1,1′-biphenyl-2-yl)methyl)piperazin-1-yl)-2-(3-chlorophenoxy)-N-((4-((1-methylpiperidin-4-yl)amino)-3-nitrophenyl)sulfonyl)benzamide]	0.005
CN1CCC(Nc2ccc(S(=O)(=O)NC(=O)c3ccc(N4CCN(CC5=C(c6ccc(Cl)cc6)CC(C)(C)CC5)CC4)cc3Oc3cccc4c3ccn4C(=O)OC(C)(C)C)cc2[N+](=O)[O-])CC1 [Example 202, tert-butyl 4-(5-(4-{[2-(4-chlorophenyl)-4,4-dimethylcyclohex-1-en-1-yl]methyl}piperazin-1-yl)-2-{[({4-[(1-methylpiperidin-4-yl)amino]-3-nitrophenyl}sulfonyl)amino]carbonyl}phenoxy)-1H-indole-1-carboxylate]	20
CN(C)C(=O)CCc1ccccc1Oc1cc(N2CCN(Cc3ccccc3-c3ccc(Cl)cc3)CC2)ccc1C(=O)NS(=O)(=O)c1ccc(NCC2CCOCC2)c([N+](=O)[O-])c1 [Example 26, 4-(4-((4′-chloro-1,1′-biphenyl-2-yl)methyl)piperazin-1-yl)-2-(2-(3-(dimethylamino)-3-oxopropyl)phenoxy)-N-((3-nitro-4-((tetrahydro-2H-pyran-4-ylmethyl)amino)phenyl)sulfonyl)benzamide]	0.511
CN1CCC(Nc2ccc(S(=O)(=O)NC(=O)c3ccc(N4CCN(CC5=C(c6ccc(Cl)cc6)CC(C)(C)CC5)CC4)cc3Oc3cccc(Cl)c3Cl)cc2[N+](=O)[O-])CC1 [Example 54, 4-(4-((2-(4-chlorophenyl)-4,4-dimethylcyclohex-1-en-1-yl)methyl)piperazin-1-yl)-2-(2,3-dichlorophenoxy)-N-((4-((1-methylpiperidin-4-yl)amino)-3-nitrophenyl)sulfonyl)benzamide]	0.082
O=C(NS(=O)(=O)c1ccc(NCC2CCOCC2)c([N+](=O)[O-])c1)c1ccc(N2CCN(Cc3ccccc3-c3ccc(Cl)cc3)CC2)cc1Oc1cccc(Cl)c1 [Example 6, 4-(4-((4′-chloro-1,1′-biphenyl-2-yl)methyl)piperazin-1-yl)-2-(3-chlorophenoxy)-N-((3-nitro-4-((tetrahydro-2H-pyran-4-ylmethyl)amino)phenyl)sulfonyl)benzamide]	0.787
CC(C)N1CCC2(CCC(c3ccc(Cl)cc3)=C(CN3CCN(c4ccc(C(=O)NS(=O)(=O)c5ccc(NCC6CCOCC6)c([N+](=O)[O-])c5)c(Oc5cnc(N)c(Cl)c5)c4)CC3)C2)CC1 [Example 392, 2-[(6-amino-5-chloropyridin-3-yl)oxy]-4-(4-{[9-(4-chlorophenyl)-3-isopropyl-3-azaspiro[5.5]undec-8-en-8-yl]methyl}piperazin-1-yl)-N-({3-nitro-4-[(tetrahydro-2H-pyran-4-ylmethyl)amino]phenyl}sulfonyl)benzamide]	< 0.01
CC1(C)CCC(CN2CCN(c3ccc(C(=O)NS(=O)(=O)c4ccc(NCC5CCOCC5)c([N+](=O)[O-])c4)c(Oc4ccc(NCC(F)(F)F)nc4)c3)CC2)=C(c2ccc(Cl)cc2)C1 [Example 385, 4-(4-{[2-(4-chlorophenyl)-4,4-dimethylcyclohex-1-en-1-yl]methyl}piperazin-1-yl)-N-({3-nitro-4-[(tetrahydro-2H-pyran-4-ylmethyl)amino]phenyl}sulfonyl)-2-({6-[(2,2,2-trifluoroethyl)amino]pyridin-3-yl}oxy)benzamide]	49.3
CN1CCC(Nc2ccc(S(=O)(=O)NC(=O)c3ccc(N4CCN(CC5=C(c6ccc(Cl)cc6)CCCC5)CC4)cc3Oc3ccccc3Cl)cc2[N+](=O)[O-])CC1 [Example 43, 2-(2-chlorophenoxy)-4-(4-((2-(4-chlorophenyl)cyclohex-1-en-1-yl)methyl)piperazin-1-yl)-N-((4-((1-methylpiperidin-4-yl)amino)-3-nitrophenyl)sulfonyl)benzamide]	0.034
CN1CCC(Nc2ccc(S(=O)(=O)NC(=O)c3ccc(N4CCN(CC5=C(c6ccc(Cl)cc6)CC(C)(C)C5)CC4)cc3Oc3ccccc3Cl)cc2[N+](=O)[O-])CC1 [Example 62, 2-(2-chlorophenoxy)-4-(4-((2-(4-chlorophenyl)-4,4-dimethylcyclopent-1-en-1-yl)methyl)piperazin-1-yl)-N-((4-((1-methylpiperidin-4-yl)amino)-3-nitrophenyl)sulfonyl)benzamide]	0.227

— patent publication US8952157B2, “Apoptosis-inducing agents for the treatment of cancer and immune and autoimmune diseases” (AbbVie Inc., priority 2008, dated 2015)
